The record followed here is ChEMBL document CHEMBL1201862, “PubChem BioAssay data set” (2004).

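Dose response: 5 concentrations. Exposure: 48 h. Format: 96-well plates. Endpoint: linear interpolation; highest concentration if not reached. GI50 = concentration required for 50% inhibition of growth.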 Active and inactive are the calls of the source. Rule as the data show it: active = GI50 up to about 1.1 µM and inactive = higher.

Test systems include MDA-N; BT-549; KM12; RPMI-8226; MCF7; IGROV-1; SK-OV-3; SK-MEL-28; DLD-1; SF-295; SK-MEL-5; HCC 2998; SR; SF-268; A498; NCI-H522; CCRF-CEM; COLO 205; M14; SK-MEL-2.
Test in all cases: NCI tumour cell line growth inhibition, 48 h

As to `CN(C)c1ccc(/C=C/c2cc[n+](C)c3ccccc23)cc1`, the GI50 in the assay on MDA-N is 2.27 µM (inactive); in the assay on BT-549, 0.437 µM (active); with KM12, 2.51 µM (inactive); in the assay on RPMI-8226, 2.95 µM (inactive); in the assay on MCF7 it was 2.29 µM (inactive); in the assay on IGROV-1, 5.16 µM (inactive). Also, the GI50 in the assay on SK-OV-3 is 5.81 µM (inactive); with SK-MEL-28, 5.32 µM (inactive); in the assay on DLD-1, 2.68 µM (inactive); in the assay on SF-295, 3.84 µM (inactive); in the assay on SK-MEL-5 it was 2.19 µM (inactive); with HCC 2998, 6.32 µM (inactive). Moreover, the GI50 in the assay on SR is 0.698 µM (active); in the assay with SF-268, 6.1 µM (inactive); in the assay with A498, 15.1 µM (inactive); with NCI-H522, 1.98 µM (inactive); with CCRF-CEM, 1.9 µM (inactive); in the assay with COLO 205 it was 1.36 µM (inactive). Also, the GI50 was 3.44 µM (inactive) in the assay with M14 and 2.27 µM (inactive) in the assay with SK-MEL-2.
For the compound `N#Cc1cc([N+](=O)[O-])ccc1NC(=O)C(F)(F)F`, the GI50 in the assay on KM12 is > 100 µM (inactive); in the assay on RPMI-8226, > 45.8 µM (inactive); with IGROV-1 it was > 100 µM (inactive); in the assay with SK-OV-3, > 100 µM (inactive); in the assay with SK-MEL-28, > 100 µM (inactive); in the assay on DLD-1, > 58.9 µM (inactive). In addition, the GI50 with SF-295, in the assay on SK-MEL-5, with HCC 2998, in the assay with SR, in the assay on SF-268 and in the assay on A498 was > 100 µM (inactive) throughout. Also, the GI50 in the assay with NCI-H522 was > 58.5 µM (inactive); with CCRF-CEM, > 84.7 µM (inactive); with COLO 205, 20.7 µM (inactive); with M14, > 100 µM (inactive); in the assay on SK-MEL-2, > 100 µM (inactive).
Regarding `Cc1ccc(SC(C)/C=C/NNC2=NN=C(c3ccccc3)C(c3ccccc3)N2)cc1` (centres undefined), the GI50 with KM12 was 27.5 µM (inactive); in the assay on RPMI-8226, 27.9 µM (inactive); in the assay on IGROV-1 it was 31.1 µM (inactive); in the assay with SK-OV-3 it was 32.2 µM (inactive); in the assay on SK-MEL-28 it was 76.4 µM (inactive); in the assay on DLD-1 it was 27.4 µM (inactive). The GI50 in the assay with SF-295 was 30.3 µM (inactive); in the assay with SK-MEL-5 it was 14.6 µM (inactive); with HCC 2998 it was 28 µM (inactive); in the assay on SR it was 11.5 µM (inactive); in the assay on SF-268, 28 µM (inactive); in the assay with A498, 40.4 µM (inactive). For the same compound, the GI50 is 23.1 µM (inactive) with NCI-H522; 21.5 µM (inactive) in the assay with CCRF-CEM; 36.1 µM (inactive) with COLO 205; 38 µM (inactive) in the assay on M14; 23.4 µM (inactive) in the assay on SK-MEL-2.
